According to the supplement of paper PMC11208160:

Assay: recombinant barcode read abundance after kanamycin selection (control-corrected) (log10(CPM+1)); higher = more efficient recombination; sequences stand for … in AGTGCAGAGAAAATCGGCCAGTTTTCTCTGCCTGCAGTCCGCATGCCGT…AGATTTATGCAGCGGACTGCCTTTCTCCCAAAGTGATAAACCGGACAGTATCATGGACCGGTTTTCCCGGTAATCCGTATTTGCAAGGTTGGTTTCACT; site = the 11-nt target
In short: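 Recombination efficiency draws on barcodes counted at recombinant junctions in a pooled E. coli screen of targets paired with IS621 bridge RNA target-binding loops. The counts were converted to counts per million, averaged and corrected against the chloramphenicol/ampicillin LB agar control, then reported as log10(CPM+1). Selection plates held chloramphenicol/ampicillin/kanamycin with 0.1 mM IPTG, with two replicates per condition.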
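Also: IS621 recombinase and bridge RNA in Escherichia coli cells.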

Sequence: GGACGTCCTTGGGTTCTAACCTGTTGCCT (site GGACGACCTAG)
- recombinant barcode read abundance (log10): 0.0935

Sequence: GGACGTCCTTGGGTTCTAACCTGTTGCCT (site GGACGCCCTAG)
- recombinant barcode read abundance (log10): 0.369

Sequence: GGACGTCCTTGGGTTCTAACCTGTTGCCT (site GGACGGCCTAG)
- recombinant barcode read abundance (log10): 0.0468

Sequence: GGACGTCCTTGGGTTCTAACCTGTTGCCT (site GGACGTCCTAG)
- recombinant barcode read abundance (log10): 0.734

Sequence: GGAGAGTCTTGGGTTCTAACCTGTTGCCT (site GAAGAGTCTAG)
- recombinant barcode read abundance (log10): 2.17

Sequence: GGAGAGTCTTGGGTTCTAACCTGTTGCCT (site GCAGAGTCTAG)
- recombinant barcode read abundance (log10): 0.995

Sequence: GGAGAGTCTTGGGTTCTAACCTGTTGCCT (site GGAGAGTCTAG)
- recombinant barcode read abundance (log10): 2.45

Sequence: GGAGAGTCTTGGGTTCTAACCTGTTGCCT (site GTAGAGTCTAG)
- recombinant barcode read abundance (log10): 1.09

Sequence: GGAGGAACTTGGGTTCTAACCTGTTGCCT (site GGAGGAACTAG)
- recombinant barcode read abundance (log10): 2.39

Sequence: GGAGGAACTTGGGTTCTAACCTGTTGCCT (site GGAGGTACTAG)
- recombinant barcode read abundance (log10): 0.1

Sequence: GGAGGACCTTGGGTTCTAACCTGTTGCTT (site GGAAGACCTTA)
- recombinant barcode read abundance (log10): 0.19

Sequence: GGAGGACCTTGGGTTCTAACCTGTTGCTT (site GGAGGACCTAA)
- recombinant barcode read abundance (log10): 2.4

Sequence: GGAGGGACTTGGGTTCTAACCTGTTGCCT (site GAAGGGACTAG)
- recombinant barcode read abundance (log10): 1.38

Sequence: GGAGGGACTTGGGTTCTAACCTGTTGCCT (site GCAGGGACTAG)
- recombinant barcode read abundance (log10): 0.658

Sequence: GGAGGGACTTGGGTTCTAACCTGTTGCCT (site GGAGGGACTAG)
- recombinant barcode read abundance (log10): 2.69

Sequence: GGAGGGACTTGGGTTCTAACCTGTTGCCT (site GTAGGGACTAG)
- recombinant barcode read abundance (log10): 1.7

Sequence: GGAGGTACTTGGGTTCTAACCTGTTGCCT (site GGAGGAACTAG)
- recombinant barcode read abundance (log10): 0.0658

Sequence: GGAGGTACTTGGGTTCTAACCTGTTGCCT (site GGAGGTACTAG)
- recombinant barcode read abundance (log10): 1.17

Sequence: GGAGGTCCTTGGGTTCTAACCTGTTGCTA (site GGAGGTCCTTA)
- recombinant barcode read abundance (log10): 2.08

Sequence: GGAGGTCCTTGGGTTCTAACCTGTTGCTA (site TAAGGTCCTTA)
- recombinant barcode read abundance (log10): 0.0399

Sequence: GGAGTACCTTGGGTTCTAACCTGTTGCAT (site CCTCATACTTG)
- recombinant barcode read abundance (log10): 0.0895

Sequence: GGAGTACCTTGGGTTCTAACCTGTTGCAT (site GGAGTACCTAT)
- recombinant barcode read abundance (log10): 2.12

Sequence: GGAGTTGCTTGGGTTCTAACCTGTTGCCT (site GGAGATTCTAG)
- recombinant barcode read abundance (log10): 0.273

Sequence: GGAGTTGCTTGGGTTCTAACCTGTTGCCT (site GGAGTTGCTAG)
- recombinant barcode read abundance (log10): 2.27

Sequence: GGATACACTTGGGTTCTAACCTGTTGCCT (site GGATACACTAG)
- recombinant barcode read abundance (log10): 2.06

Sequence: GGATACACTTGGGTTCTAACCTGTTGCCT (site GGTTACACTAG)
- recombinant barcode read abundance (log10): 0.395

Sequence: GGATCCACTTGGGTTCTAACCTGTTGCCA (site GGATACACTTG)
- recombinant barcode read abundance (log10): 0.049

Sequence: GGATCCACTTGGGTTCTAACCTGTTGCCA (site GGATCCACTTG)
- recombinant barcode read abundance (log10): 0.117

Sequence: GGATCCACTTGGGTTCTAACCTGTTGCCA (site GGATGCACTTG)
- recombinant barcode read abundance (log10): 0.0631

Sequence: GGATCCACTTGGGTTCTAACCTGTTGCCA (site GGATTCACTTG)
- recombinant barcode read abundance (log10): 0.0388

Sequence: GGATTCCCTTGGGTTCTAACCTGTTGCCA (site GGAGTCCCTTC)
- recombinant barcode read abundance (log10): 0.242

Sequence: GGATTCCCTTGGGTTCTAACCTGTTGCCA (site GGATTCCCTTG)
- recombinant barcode read abundance (log10): 1.15

Sequence: GGATTTACTTGGGTTCTAACCTGTTGCCT (site GGATATACTAG)
- recombinant barcode read abundance (log10): 0.0849

Sequence: GGATTTACTTGGGTTCTAACCTGTTGCCT (site GGATTTACTAG)
- recombinant barcode read abundance (log10): 0.276

Sequence: GGCAAGACTTGGGTTCTAACCTGTTGCCT (site GGAAAGACTAG)
- recombinant barcode read abundance (log10): 0

Sequence: GGCAAGACTTGGGTTCTAACCTGTTGCCT (site GGCAAGACTAG)
- recombinant barcode read abundance (log10): 0.185

Sequence: GGCAAGACTTGGGTTCTAACCTGTTGCCT (site GGGAAGACTAG)
- recombinant barcode read abundance (log10): 0.154

Sequence: GGCAAGACTTGGGTTCTAACCTGTTGCCT (site GGTAAGACTAG)
- recombinant barcode read abundance (log10): 0.0715

Sequence: GGCACGGCTTGGGTTCTAACCTGTTGCCT (site GGCACAGCTAG)
- recombinant barcode read abundance (log10): 0.519

Sequence: GGCACGGCTTGGGTTCTAACCTGTTGCCT (site GGCACCGCTAG)
- recombinant barcode read abundance (log10): 0.0995

Sequence: GGCACGGCTTGGGTTCTAACCTGTTGCCT (site GGCACGGCTAG)
- recombinant barcode read abundance (log10): 0.134

Sequence: GGCACGGCTTGGGTTCTAACCTGTTGCCT (site GGCACTGCTAG)
- recombinant barcode read abundance (log10): 0.11

Sequence: GGCAGGTCTTGGGTTCTAACCTGTTGCTT (site GGCAGATCTAA)
- recombinant barcode read abundance (log10): 0.163

Sequence: GGCAGGTCTTGGGTTCTAACCTGTTGCTT (site GGCAGCTCTAA)
- recombinant barcode read abundance (log10): 0.0728

Sequence: GGCAGGTCTTGGGTTCTAACCTGTTGCTT (site GGCAGGTCTAA)
- recombinant barcode read abundance (log10): 0.795

Sequence: GGCAGGTCTTGGGTTCTAACCTGTTGCTT (site GGCAGTTCTAA)
- recombinant barcode read abundance (log10): 0.044

Sequence: GGCAGTTCTTGGGTTCTAACCTGTTGCTT (site GGCAGATCTAA)
- recombinant barcode read abundance (log10): 0.0437

Sequence: GGCAGTTCTTGGGTTCTAACCTGTTGCTT (site GGCAGCTCTAA)
- recombinant barcode read abundance (log10): 0.0661

Sequence: GGCAGTTCTTGGGTTCTAACCTGTTGCTT (site GGCAGGTCTAA)
- recombinant barcode read abundance (log10): 0.0765

Sequence: GGCAGTTCTTGGGTTCTAACCTGTTGCTT (site GGCAGTTCTAA)
- recombinant barcode read abundance (log10): 0.0537

Sequence: GGCCCCTCTTGGGTTCTAACCTGTTGCCG (site CGCGCCTCTCG)
- recombinant barcode read abundance (log10): 0.368

Sequence: GGCCCCTCTTGGGTTCTAACCTGTTGCCG (site GGCCCCTCTCG)
- recombinant barcode read abundance (log10): 1.8

Sequence: GGCCGAACTTGGGTTCTAACCTGTTGCCT (site AGCCGAACTAG)
- recombinant barcode read abundance (log10): 0.112

Sequence: GGCCGAACTTGGGTTCTAACCTGTTGCCT (site CGCCGAACTAG)
- recombinant barcode read abundance (log10): 0.0639

Sequence: GGCCGAACTTGGGTTCTAACCTGTTGCCT (site GGCCGAACTAG)
- recombinant barcode read abundance (log10): 0.211

Sequence: GGCCGAACTTGGGTTCTAACCTGTTGCCT (site TGCCGAACTAG)
- recombinant barcode read abundance (log10): 0.144

Sequence: GGCCGGGCTTGGGTTCTAACCTGTTGCGG (site GCCCGGGCTCC)
- recombinant barcode read abundance (log10): 0.286

Sequence: GGCCGGGCTTGGGTTCTAACCTGTTGCGG (site GGCCGGGCTCC)
- recombinant barcode read abundance (log10): 0.906

Sequence: GGCCTCCCTTGGGTTCTAACCTGTTGCAT (site CGCCTCCCTAT)
- recombinant barcode read abundance (log10): 0.0328

Sequence: GGCCTCCCTTGGGTTCTAACCTGTTGCAT (site GGCCTCCCTAT)
- recombinant barcode read abundance (log10): 0.743

Sequence: GGCGACCCTTGGGTTCTAACCTGTTGCCT (site GGCGACCCTAG)
- recombinant barcode read abundance (log10): 0.99

Sequence: GGCGACCCTTGGGTTCTAACCTGTTGCCT (site GGCGTCACTAG)
- recombinant barcode read abundance (log10): 0.143

Sequence: GGCGAGTCTTGGGTTCTAACCTGTTGCTA (site GACGAGTCTTA)
- recombinant barcode read abundance (log10): 1.4

Sequence: GGCGAGTCTTGGGTTCTAACCTGTTGCTA (site GGCGAGTCTTA)
- recombinant barcode read abundance (log10): 1.64

Sequence: GGCGCATCTTGGGTTCTAACCTGTTGCCT (site GGCGCATCTAG)
- recombinant barcode read abundance (log10): 0.417

Sequence: GGCGCATCTTGGGTTCTAACCTGTTGCCT (site GGCGCGTCTAG)
- recombinant barcode read abundance (log10): 0.207
